Results as given in US9079919B2 (HOFFMANN-LA ROCHE INC., priority 2011, dated 2015).
Counter-ions that a name gives are not always drawn.

These compounds were tested against T1, BACE1 (Homo sapiens, UniProt P56817) (assay: Cellular Aβ-lowering assay b) (Abeta 40 AlphaLISA Assay)). Details: cellular assay b): HEK293 APP cells, Aβ40 in supernatant by AlphaLISA after 18-20 hrs; read-out: BACE1 cell act. Aβ40 IC50.
T1 construct: Human HEK293 cells which are stably transfected with a vector expressing a cDNA of the human APP wt gene (APP695); endogenous in cells; host or cells: HEK293 cells stably transfected with human APP695 (wt)
T1 sequence (P56817 46-501): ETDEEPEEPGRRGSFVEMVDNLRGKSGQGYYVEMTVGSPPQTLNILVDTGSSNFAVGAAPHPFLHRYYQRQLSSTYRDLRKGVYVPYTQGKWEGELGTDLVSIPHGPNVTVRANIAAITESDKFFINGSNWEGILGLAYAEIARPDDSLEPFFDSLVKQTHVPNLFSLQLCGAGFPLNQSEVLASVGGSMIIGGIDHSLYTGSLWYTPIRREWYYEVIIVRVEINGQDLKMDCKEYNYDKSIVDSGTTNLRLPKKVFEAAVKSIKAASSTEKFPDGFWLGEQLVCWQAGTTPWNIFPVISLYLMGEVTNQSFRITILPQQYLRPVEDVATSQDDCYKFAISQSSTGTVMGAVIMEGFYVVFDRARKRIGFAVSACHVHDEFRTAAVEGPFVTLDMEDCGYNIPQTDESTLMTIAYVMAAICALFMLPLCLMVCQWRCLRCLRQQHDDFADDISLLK
Type: cell-based
Method: b) Alternatively, the Abeta 40 AlphaLISA Assay can be used. The HEK293 APP cells were seeded in 96 well Microtiter plates in cell culture medium (Iscove's, plus 10% (v/v) fetal bovine serum, penicillin/streptomycin) to about 80% confluency and the compounds were added at a 3× concentration in 1/3 volume of culture medium (final DMSO concentration was kept at 1% v/v). After 18-20 hrs incubation at 37° C. and 5% CO2 in a humidified incubator, the culture supernatants were harvested for the determination of Aβ 40 concentrations using Perkin-Elmer Human Amyloid beta 1-40 (high specificity) Kit (Cat#AL275C).
In a Perkin-Elmer White Optiplate-384 (Cat#6007290), 2 ul culture supernatants were combined with 2 μl of a 10× AlphaLISA Anti-hAβ Acceptor beads+Biotinylated Antibody Anti-Aβ 1-40 Mix (50 μg/mL/5 nM). After 1 hour room temperature incubation, 16 μl of a 1.25× preparation of Streptavidin (SA) Donor beads (25 μg/mL) were added and incubated for 30 minutes in the Dark. Light Emission at 615 nm was then recorded using EnVision-Alpha Reader. Levels of Aβ 40 in the culture supernatants were calculated as percentage of maximum signal (cells treated with 1% DMSO without inhibitor). The IC50 values were calculated using the Excel XLfit software.
An IC50 of 3.38 µM was found for `N#Cc1cncc(-c2ccc3c(c2)[C@@]2(CC3)N=C(N)OCC2(F)F)c1` [Example 11, (R)-5-(2′-Amino-5′,5′-difluoro-2,3,5′,6′-tetrahydrospiro[indene-1,4′-[1,3]oxazine]-6-yl)nicotinonitrile] in this work. An IC50 of 5.17 µM was found for `N#Cc1ccc(C(=O)Nc2ccc3c(c2)[C@@]2(C[C@@]4(CCCOC4)O3)N=C(N)OCC2(F)F)nc1` [Example 44, N-[(2′R,4R)-2-Amino-5,5-difluoro-5,5″,6,6″-tetrahydro-4″H-dispiro[1,3-oxazine-4,4′-chromene-2′,3″-pyran]-6′-yl]-5-cyanopyridine-2-carboxamide] in this work. An IC50 of 4.43 µM was found for `NC1=N[C@@]2(C[C@@]3(CCCOC3)Oc3ccc(-c4cncc(Cl)c4)cc32)C(F)(F)CO1` [Example 29, (2′R,4R)-6′-(5-Chloropyridin-3-yl)-5,5-difluoro-5,5″,6,6″-tetrahydro-4″H-dispiro[1,3-oxazine-4,4′-chromene-2′,3″-pyran]-2-amine formate] in this work.
